Experimental data taken from the supplement of paper PMC10307832.

Assays:
Assay in all cases: relative viability (nuclei count vs DMSO), 5 days (fraction); higher = more cells survive
[1] = test system: NCI-H2009
How it was run: (§1)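 After 5 days of treatment, lung cancer cells in 1536-well plates were fixed and stained in a single step (final 0.05% Triton X-100, 1% formaldehyde, 1 ug/ml Hoechst) and their nuclei counted on 4× images. Treatment had been applied by pin tool the day after seeding as one drug alone or as a fixed anchor-drug dose with five library-drug doses (not always all listed) in √10 steps. Relative viability is the nuclei count of treated wells divided by that of vehicle wells, and values are medians of duplicate plates.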

[2] = test system: NCI-H1993
How it was run: as §1

[3] = test system: NCI-H1734
How it was run: as §1

[4] = test system: SW 1573
How it was run: as §1

[5] = test system: NCI-H2126
How it was run: as §1

[6] = test system: NCI-H727
How it was run: as §1

[7] = test system: NCI-H2023
How it was run: as §1

[8] = test system: NCI-H1915
How it was run: as §1

[9] = test system: EPLC-272H
How it was run: as §1

[10] = test system: NCI-H2347
How it was run: as §1

[11] = test system: H3255
How it was run: as §1

[12] = test system: NCI-H647
How it was run: as §1

[13] = test system: NCI-H322M
How it was run: as §1

[14] = test system: SK-LU-1
How it was run: as §1

[15] = test system: HOP-62
How it was run: as §1

[16] = test system: NCI-H2085
How it was run: as §1

[17] = test system: LCLC-97TM1
How it was run: as §1

[18] = test system: LXF-289
How it was run: as §1

[19] = test system: PC-14
How it was run: as §1

[20] = test system: EMC-BAC-2
How it was run: as §1

Cc1sc2c(c1C)C(c1ccc(Cl)cc1)=N[C@@H](CC(=O)OC(C)(C)C)c1nnc(C)n1-2 [JQ1] + CC1(C)CCC(c2ccc(Cl)cc2)=C(CN2CCN(c3ccc(C(=O)NS(=O)(=O)c4ccc(N[C@H](CCN5CCOCC5)CSc5ccccc5)c(S(=O)(=O)C(F)(F)F)c4)cc3)CC2)C1 [Navitoclax] (partner 0.5 µM)
relative viability ([1]; first compound 0.04 µM): 1.2 | relative viability ([1]; first compound 0.1265 µM): 0.938 | relative viability ([1]; first compound 0.4 µM): 0.837 | relative viability ([1]; first compound 1.265 µM): 0.359 | relative viability ([1]; first compound 4 µM): 0.388 | relative viability ([2]; first compound 0.04 µM): 0.929 | relative viability ([2]; first compound 0.1265 µM): 0.811 | relative viability ([2]; first compound 0.4 µM): 0.861 | relative viability ([2]; first compound 1.265 µM): 0.85 | relative viability ([2]; first compound 4 µM): 0.875 | relative viability ([3]; first compound 0.04 µM): 0.849 | relative viability ([3]; first compound 0.1265 µM): 0.825 | relative viability ([3]; first compound 0.4 µM): 0.83 | relative viability ([3]; first compound 1.265 µM): 0.407 | relative viability ([3]; first compound 4 µM): 0.233 | relative viability ([4]; first compound 0.04 µM): 0.984 | relative viability ([4]; first compound 0.1265 µM): 0.756 | relative viability ([4]; first compound 0.4 µM): 0.827 | relative viability ([4]; first compound 1.265 µM): 0.536 | relative viability ([4]; first compound 4 µM): 0.239 | relative viability ([5]; first compound 0.04 µM): 0.892 | relative viability ([5]; first compound 0.1265 µM): 0.733 | relative viability ([5]; first compound 0.4 µM): 0.843 | relative viability ([5]; first compound 1.265 µM): 0.578 | relative viability ([5]; first compound 4 µM): 0.555 | relative viability ([6]; first compound 0.04 µM): 0.436 | relative viability ([6]; first compound 0.1265 µM): 0.453 | relative viability ([6]; first compound 0.4 µM): 0.291 | relative viability ([6]; first compound 1.265 µM): 0.209 | relative viability ([6]; first compound 4 µM): 0.252 | relative viability ([7]; first compound 0.04 µM): 0.98 | relative viability ([7]; first compound 0.1265 µM): 0.915 | relative viability ([7]; first compound 0.4 µM): 0.846 | relative viability ([7]; first compound 1.265 µM): 0.334 | relative viability ([7]; first compound 4 µM): 0.369 | relative viability ([8]; first compound 0.04 µM): 0.781 | relative viability ([8]; first compound 0.1265 µM): 0.567 | relative viability ([8]; first compound 0.4 µM): 0.698 | relative viability ([8]; first compound 1.265 µM): 0.419 | relative viability ([8]; first compound 4 µM): 0.198 | relative viability ([9]; first compound 0.04 µM): 1.14 | relative viability ([9]; first compound 0.1265 µM): 0.958 | relative viability ([9]; first compound 0.4 µM): 1.06 | relative viability ([9]; first compound 1.265 µM): 0.462 | relative viability ([9]; first compound 4 µM): 0.321 | relative viability ([10]; first compound 0.04 µM): 0.782 | relative viability ([10]; first compound 0.1265 µM): 0.691 | relative viability ([10]; first compound 0.4 µM): 0.571 | relative viability ([10]; first compound 1.265 µM): 0.316 | relative viability ([10]; first compound 4 µM): 0.286 | relative viability ([11]; first compound 0.04 µM): 0.495 | relative viability ([11]; first compound 0.1265 µM): 0.441 | relative viability ([11]; first compound 0.4 µM): 0.566 | relative viability ([11]; first compound 1.265 µM): 0.268 | relative viability ([11]; first compound 4 µM): 0.258 | relative viability ([12]; first compound 0.04 µM): 1.1 | relative viability ([12]; first compound 0.1265 µM): 0.709 | relative viability ([12]; first compound 0.4 µM): 0.498 | relative viability ([12]; first compound 1.265 µM): 0.141 | relative viability ([12]; first compound 4 µM): 0.0972 | relative viability ([13]; first compound 0.04 µM): 1.09 | relative viability ([13]; first compound 0.1265 µM): 1.11 | relative viability ([13]; first compound 0.4 µM): 1.1 | relative viability ([13]; first compound 1.265 µM): 0.692 | relative viability ([13]; first compound 4 µM): 0.608 | relative viability ([14]; first compound 0.04 µM): 0.841 | relative viability ([14]; first compound 0.1265 µM): 0.784 | relative viability ([14]; first compound 0.4 µM): 0.791 | relative viability ([14]; first compound 1.265 µM): 0.0557 | relative viability ([14]; first compound 4 µM): 0.0951 | relative viability ([15]; first compound 0.04 µM): 0.926 | relative viability ([15]; first compound 0.1265 µM): 0.841 | relative viability ([15]; first compound 0.4 µM): 0.516 | relative viability ([15]; first compound 1.265 µM): 0.133 | relative viability ([15]; first compound 4 µM): 0.0774 | relative viability ([16]; first compound 0.04 µM): 1.08 | relative viability ([16]; first compound 0.1265 µM): 1.1 | relative viability ([16]; first compound 0.4 µM): 0.902 | relative viability ([16]; first compound 1.265 µM): 0.561 | relative viability ([16]; first compound 4 µM): 0.643 | relative viability ([17]; first compound 0.1265 µM): 0.329 | relative viability ([17]; first compound 0.4 µM): 0.403 | relative viability ([17]; first compound 1.265 µM): 0.175 | relative viability ([17]; first compound 4 µM): 0.152 | relative viability ([18]; first compound 0.04 µM): 0.964 | relative viability ([18]; first compound 0.1265 µM): 0.975 | relative viability ([18]; first compound 0.4 µM): 0.863 | relative viability ([18]; first compound 1.265 µM): 0.731 | relative viability ([18]; first compound 4 µM): 0.29 | relative viability ([19]; first compound 0.04 µM): 0.944 | relative viability ([19]; first compound 0.1265 µM): 0.957 | relative viability ([19]; first compound 0.4 µM): 0.937 | relative viability ([19]; first compound 1.265 µM): 0.672 | relative viability ([19]; first compound 4 µM): 0.303 | relative viability ([20]; first compound 0.04 µM): 1.18 | relative viability ([20]; first compound 0.1265 µM): 1.18 | relative viability ([20]; first compound 0.4 µM): 1.01 | relative viability ([20]; first compound 1.265 µM): 0.61 | relative viability ([20]; first compound 4 µM): 0.658
